The values that follow come from patent US12023319B2, “Carboxylic acid aromatic amides” (priority 2016, dated 2024).

This experiment has as its target T1, human Bradykinin B1 receptor (Homo sapiens, UniProt P46663).
T1 construct: host or cells: CHO-K1
T1 sequence (P46663 1-353): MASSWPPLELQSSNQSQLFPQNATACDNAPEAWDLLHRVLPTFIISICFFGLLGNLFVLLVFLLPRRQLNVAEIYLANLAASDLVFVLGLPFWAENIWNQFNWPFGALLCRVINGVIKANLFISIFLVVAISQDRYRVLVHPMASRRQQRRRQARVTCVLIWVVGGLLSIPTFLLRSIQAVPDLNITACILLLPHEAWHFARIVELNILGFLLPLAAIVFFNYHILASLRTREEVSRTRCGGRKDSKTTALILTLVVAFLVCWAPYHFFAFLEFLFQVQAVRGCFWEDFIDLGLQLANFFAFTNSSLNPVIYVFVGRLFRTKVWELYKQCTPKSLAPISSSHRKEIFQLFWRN
Briefly: Calcium flux assay (FLIPR), CHO-K1 cells expressing human Bradykinin B1 receptor, absence of 0.1% BSA (hB1 free IC50). The format is cell-based. The following applies: absence of 0.1% BSA in assay buffer. On the procedure:
The potency to inhibit the Bradykinin B1 receptor was determined for the Compound Examples of this invention in a cell-based fluorescent calcium-mobilisation assay. The assay measures the ability of Compound Examples to inhibit Bradykinin B1 receptor agonist-induced increase of intracellular free Ca^2+ in the cell line expressing Bradykinin B1 receptor. Specifically, calcium indicator-loaded cells are pre-incubated in the absence or presence of different concentrations of Compound Examples followed by the stimulation with a selective Bradykinin B1 receptor agonist peptide. The change of the intracellular Ca^2+ concentration is monitored with a fluorescent plate reader FLIPR^TETRA® (Molecular Devices).
Calcium Flux Assays (FLIPR) with Cells Expressing Human Bradykinin B1 Receptor (hB1)
CHO-K1 cell line expressing human Bradykinin B1 receptor is purchased from Euroscreen (Gosselies, Belgium, with reference name hB1-D1). The cells are grown in Nutrient Mixture Ham's F12 (Sigma) containing 10% Foetal bovine serum (Sigma) and 400 μg/mL G418 (Sigma), 5 μg/mL puromycin (Sigma).
The effect of BSA on the potency of endothelin receptor antagonists have been described in the prior art (Wu-Wong, J. R. et al. (1997), JPET 281: 791-798). The teaching can be applied in analogy to testing the potency of Bradykinin B1 receptor antagonist in the FLIPR assays.
For the calcium flux assay, 80% confluent cells are detached from the culture vessels with Versene (Gibco), and seeded into 384-well plates (Cell binding Surface; Corning, NY; #3683) at a density of 15,000 cells per well. Cells are seeded in a volume of 50 μL in medium without antibiotics and incubated overnight in a humidified atmosphere with 5% CO2 at 37° C. […] The calcium indicator loaded cells are incubated at 37° C. for 2 hrs. Extracellular dye is then removed and each well is filled with 45 μL of assay buffer. Cell plates are kept in dark until used. Compound examples are assayed at 8 concentrations in triplicate. Serial 10-fold dilutions in 100% DMSO are made at a 100-times higher concentration than the final concentration, and then diluted 1:10 in assay buffer. 5 μL of each diluted compound is added to the well of cell plates (yielding final concentration with 1% DMSO), and incubated for 30 min at 28° C. before the addition of Bradykinin B1 receptor agonist on the FLIPR instrument.
The addition of agonist 20 μl per well to the assay plate is carried out on the FLIPR instrument while continuously monitoring Ca2+-dependent fluorescence at 538 nm. A peptide antagonist Lys-(Des-Arg-Leu)-Bradykinin (Bachem, Brackley) at 20 µM is used to determine the full inhibition as control.
Peak fluorescence is used to determine the response to agonist obtained at each concentration of Compound Examples by the following equation: % Response=100*(RFU(compound)−RFU(control))/(RFU(DMSO)−RFU(control))
RFU means relative fluorescence units.
Control means full inhibition by the peptide antagonist Lys-(Des-Arg-Leu)-Bradykinin at 20 µM.
The response values are plotted against the logarithm of the compound concentrations. The Compound Examples are tested in triplicates per plate and mean values are plotted in Excel XLfit to determine IC50 values, percentage of maximal inhibition and the Hill slopes.

Structures are written as SMILES.

For `CC(C)(C)c1ccn(-c2ccc(NC(=O)C3(c4ccc(OC(F)(F)F)cc4F)CC3)cc2C(=O)O)n1` [Example 66, 2-(3-tert-Butyl-1H-pyrazol-1-yl)-5-[({1-[2-fluoro-4-(trifluoromethoxy)phenyl]cyclopropyl}carbonyl)amino]benzoic acid], the 50% inhibitory concentration (IC50) is 2100 nM.

In the case of `Cn1ncc2ccc(-c3c(F)cc(NC(=O)C4(c5ccc(OC(F)(F)F)cc5F)CC4)cc3C(=O)O)cc21` [Example 166, 3-Fluoro-5-[({1-[2-fluoro-4-(trifluoromethoxy)phenyl]cyclopropyl}carbonyl)amino]-2-(1-methyl-1H-indazol-6-yl)benzoic acid], the half-inhibitory concentration (IC50) turned out to be 24 nM.

As for `CC1(Cn2cc(-c3ccc(NC(=O)C4(c5ccc(C(F)(F)F)cc5F)CC4)cc3C(=O)O)cn2)CC1` [Example 151, 5-[({1-[2-Fluoro-4-(trifluoromethyl)phenyl]cyclopropyl}carbonyl)amino]-2-{1-[(1-methylcyclopropyl)methyl]-1H-pyrazol-4-yl}benzoic acid], the IC50 amounted to 22 nM.

Turning to `O=C(O)c1cc(NC(=O)C2(c3ccc(OC(F)(F)F)cc3F)CC2)ccc1-c1cnn(C2CCCCC2)c1` [Example 123, 2-(1-Cyclohexyl-1H-pyrazol-4-yl)-5-[({1-[2-fluoro-4-(trifluoromethoxy)phenyl]cyclopropyl}carbonyl)amino]benzoic acid], the IC50 was found to be 22 nM.

Consider `O=C(O)c1cc(NC(=O)C2(c3ccc(Cl)cc3)CC2)cc(F)c1-c1cnn(C2CCC2)c1` [Example 35, 5-({[1-(4-Chlorophenyl)cyclopropyl]carbonyl}amino)-2-(1-cyclobutyl-1H-pyrazol-4-yl)-3-fluorobenzoic acid], for which the IC50 was determined as 26 nM.

Take `CC(C)Cn1cc(-c2ccc(NC(=O)C3(c4ccc(Cl)cc4F)CC3)cc2C(=O)O)cn1` [Example 117, 5-({[1-(4-Chloro-2-fluorophenyl)cyclopropyl]carbonyl}amino)-2-(1-isobutyl-1H-pyrazol-4-yl)benzoic acid]: the concentration for half-maximal inhibition (IC50) was determined as 56 nM.

As for `Cn1cc(-c2c(F)cc(NC(=O)C3(c4ccc(C(F)(F)F)cc4F)CC3)cc2C(=O)O)cn1` [Example 143, 3-Fluoro-5-[({1-[2-fluoro-4-(trifluoromethyl)phenyl]cyclopropyl}carbonyl)amino]-2-(1-methyl-1H-pyrazol-4-yl)benzoic acid], the IC50 was determined as 78 nM.

`CCC(F)(F)c1ccc(-c2ccc(NC(=O)C3(c4ccc(C(F)(F)F)cc4)CC3)cc2C(=O)O)cn1` [Example 21, 2-[6-(1,1-Difluoropropyl)pyridin-3-yl]-5-[({1-[4-(trifluoromethyl)phenyl]cyclopropyl}carbonyl)amino]benzoic acid]: the IC50 was determined as 710 nM.

For `Cc1ccc(C2(C(=O)Nc3cc(F)c(-c4cnn(C(C)C)c4)c(C(=O)O)c3)CC2)c(F)c1` [Example 87, 3-Fluoro-5-({[1-(2-fluoro-4-methylphenyl)cyclopropyl]carbonyl}amino)-2-[1-(propan-2-yl)-1H-pyrazol-4-yl]benzoic acid], the IC50 came out at 38 nM.

Take `O=C(O)c1cc(NC(=O)C2(c3cccc(Cl)c3F)CC2)ccc1-c1cnn(C2CCC2)c1` [Example 52, 5-({[1-(3-Chloro-2-fluorophenyl)cyclopropyl]carbonyl}amino)-2-(1-cyclobutyl-1H-pyrazol-4-yl)benzoic acid]: the IC50 was determined as 740 nM.

For the compound `O=C(O)c1cc(NC(=O)C2(c3ccc(C(F)(F)F)cc3F)CC2)ccc1-n1ccc(CC(F)(F)F)n1` [Example 15, 5-[({1-[2-Fluoro-4-(trifluoromethyl)phenyl]cyclopropyl}carbonyl)amino]-2-[3-(2,2,2-trifluoroethyl)-1H-pyrazol-1-yl]benzoic acid], the 50% inhibitory concentration (IC50) stood at 3600 nM.

Consider `Cn1ncc2ccc(-c3c(F)cc(NC(=O)C4(c5ccc(C(F)(F)F)cc5F)CC4)cc3C(=O)O)cc21` [Example 165, 3-Fluoro-5-[({1-[2-fluoro-4-(trifluoromethyl)phenyl]cyclopropyl}carbonyl)amino]-2-(1-methyl-1H-indazol-6-yl)benzoic acid], for which the IC50 came to 63 nM.

Turning to `Cc1ccc(-c2c(F)cc(NC(=O)C3(c4ccc(C(F)(F)F)cc4F)CC3)cc2C(=O)O)cn1` [Example 128, 3-Fluoro-5-[({1-[2-fluoro-4-(trifluoromethyl)phenyl]cyclopropyl}carbonyl)amino]-2-(6-methylpyridin-3-yl)benzoic acid], the half-inhibitory concentration (IC50) is 37 nM.

Take `O=C(O)c1cc(NC(=O)C2(c3ccc(C(F)(F)F)cc3F)CC2)ccc1-c1cc2cccnc2s1` [Example 46, 5-[({1-[2-Fluoro-4-(trifluoromethyl)phenyl]cyclopropyl}carbonyl)amino]-2-(thieno[2,3-b]pyridin-2-yl)benzoic acid]: the half-inhibitory concentration (IC50) was 58 nM.

Regarding `O=C(O)c1cc(NC(=O)C2(c3ccc(C(F)(F)F)cc3F)CC2)ccc1-c1cnn(C2CCCCC2)c1` [Example 122, 2-(1-Cyclohexyl-1H-pyrazol-4-yl)-5-[({1-[2-fluoro-4-(trifluoromethyl)phenyl]cyclopropyl}carbonyl)amino]benzoic acid], the 50% inhibitory concentration (IC50) is 13 nM.

As to `CC(C)n1cc(-c2c(F)cc(NC(=O)C3(c4ccc(C(F)(F)F)cc4)CC3)cc2C(=O)O)cn1` [Example 85, 3-Fluoro-2-[1-(propan-2-yl)-1H-pyrazol-4-yl]-5-[({1-[4-(trifluoromethyl)phenyl]cyclopropyl}carbonyl)amino]benzoic acid], the IC50 was 71 nM.

`O=C(O)c1cc(NC(=O)C2(c3ccc(C(F)(F)F)cc3F)CC2)cc(Cl)c1-c1ccc(C(F)(F)F)nc1` [Example 104, 3-Chloro-5-[({1-[2-fluoro-4-(trifluoromethyl)phenyl]cyclopropyl}carbonyl)amino]-2-[6-(trifluoromethyl)pyridin-3-yl]benzoic acid]: the IC50 was determined as 130 nM.

With `O=C(O)c1cc(NC(=O)C2(c3ccc(OC(F)(F)F)cc3F)CC2)ccc1-c1cnn(CC2CCC2)c1` [Example 120, 2-[1-(Cyclobutylmethyl)-1H-pyrazol-4-yl]-5-[({1-[2-fluoro-4-(trifluoromethoxy)phenyl]cyclopropyl}carbonyl)amino]benzoic acid], the IC50 was 17 nM.

With `O=C(O)c1cc(NC(=O)C2(c3ccc(C(F)(F)F)c(F)c3)CC2)ccc1-c1cnn(C2CCC2)c1` [Example 79, 2-(1-Cyclobutyl-1H-pyrazol-4-yl)-5-[({1-[3-fluoro-4-(trifluoromethyl)phenyl]cyclopropyl}carbonyl)amino]benzoic acid], the IC50 is 60 nM.

In the case of `O=C(O)c1cc(NC(=O)C2(c3ccc(F)c(Cl)c3)CC2)ccc1-c1cnn(C2CCC2)c1` [Example 56, 5-({[1-(3-Chloro-4-fluorophenyl)cyclopropyl]carbonyl}amino)-2-(1-cyclobutyl-1H-pyrazol-4-yl)benzoic acid], the IC50 worked out at 85 nM.

As to `CCc1ccc(-c2ccc(NC(=O)C3(c4ccc(C(F)(F)F)cc4F)CC3)cc2C(=O)O)cn1` [Example 160, 2-(6-Ethylpyridin-3-yl)-5-[({1-[2-fluoro-4-(trifluoromethyl)phenyl]cyclopropyl}carbonyl)amino]benzoic acid], the IC50 is 21 nM.

With `O=C(O)c1cc(NC(=O)C2(c3ccc(C(F)(F)F)cc3F)CC2)cc(F)c1-c1cnn(CC(F)(F)F)c1` [Example 172, 3-Fluoro-5-[({1-[2-fluoro-4-(trifluoromethyl)phenyl]cyclopropyl}carbonyl)amino]-2-[1-(2,2,2-trifluoroethyl)-1H-pyrazol-4-yl]benzoic acid], the IC50 came to 30 nM.

For orientation: IC50 means the concentration that gives 50% inhibition.
